Blank lines part the entries; values can stand above or below the molecule they belong to.
Assays:
Rat IV PK = type: in vivo; conditions: male, Sprague-Dawley, plasma, 1 mg/kg
Stability in rat plasma = type: in vitro ADME
WP2 uvrA = assay: Bacterial reverse mutation assay; type: cell-based, Escherichia coli; conditions: with and without S9 metabolic activation; 0.05 to 5.0 mg/plate
TA98 = assay: Bacterial reverse mutation assay; type: cell-based, Salmonella typhimurium; conditions: with and without S9 metabolic activation; 0.05 to 5.0 mg/plate
[1] = Stability in human cryopreserved hepatocytes
TA135 = assay: Bacterial reverse mutation assay; type: cell-based, Salmonella typhimurium; conditions: with and without S9 metabolic activation; 0.05 to 5.0 mg/plate
aldehyde oxidase (AO) = assay: Metabolism in hepatic S9 fractions; type: in vitro ADME; conditions: rat, cynomolgus monkey and human hepatic S9 fractions
TA1537 = assay: Bacterial reverse mutation assay; type: cell-based, Salmonella typhimurium; conditions: with and without S9 metabolic activation; 0.05 to 5.0 mg/plate
[2] = Cynomolgus monkey oral PK; type: in vivo; conditions: male, plasma, 5 mg/kg
TA100 = assay: Bacterial reverse mutation assay; type: cell-based, Salmonella typhimurium; conditions: with and without S9 metabolic activation; 0.05 to 5.0 mg/plate
[3] = rats; cited from earlier work

- clearance at 24 h (Rat IV PK): 5.76 L/h/kg
- stability in rat plasma (Stability in rat plasma): instability
Structure (SMILES): Cc1cc(Oc2cncc(F)c2)cc(C(=O)Nc2cccc(F)n2)n1 [compound 26, N-(6-Fluoropyridin-2-yl)-4-((5-fluoropyridin-3-yl)oxy)-6-methylpicolinamide]

- clearance at 24 h (Rat IV PK): 0.552 L/h/kg
- Tmax [2]: 2 h
Structure (SMILES): Cc1cc(Oc2cncc(F)c2)cc(C(=O)Nc2ccc(F)cn2)n1 [compound 28, N-(5-Fluoropyridin-2-yl)-4-((5-fluoropyridin-3-yl)oxy)-6-methylpicolinamide]

- clearance at 24 h (Rat IV PK): 1.95 L/h/kg
Structure (SMILES): Cc1cccc(NC(=O)c2cc(Oc3cncc(F)c3)cc(C)n2)n1 [compound 22, 4-((5-Fluoropyridin-3-yl)oxy)-6-methyl-N-(6-methylpyridin-2-yl)picolinamide]

Continued, molecule first:

Structure (SMILES): Cc1cc(Oc2cncnc2)cc(C(=O)Nc2ccc(F)cn2)n1 [compound 27, N-(5-Fluoropyridin-2-yl)-6-methyl-4-(pyrimidin-5-yloxy)picolinamide]
- clearance at 24 h (Rat IV PK): 1.16 L/h/kg
- bacterial reverse mutation assay WP2 uvrA (WP2 uvrA): negative
- bacterial reverse mutation assay TA98 (TA98): negative
- half-life at 5 µM ([1]; both, cryopreserved hepatocytes (pooled, 19 donors)): > 5 h
- predicted hepatic clearance (CLHEP) ([1]; predicted from hepatocytes): 0.215 L/h/kg
- bacterial reverse mutation assay TA135 (TA135): negative
- contribution of AO to metabolism (aldehyde oxidase (AO)): AO contributed significantly to the metabolism
- bacterial reverse mutation assay TA1537 (TA1537): negative
- Tmax [2]: 3 h
- bacterial reverse mutation assay TA100 (TA100): negative

Structure (SMILES): Cc1csc(NC(=O)c2cc(F)cc(Oc3cncnc3)c2)n1 [compound 9]
- Clp [3]: 2.58 L/h/kg

Structure (SMILES): Cc1cccc(NC(=O)c2cc(Oc3cncnc3)cc(C)n2)n1 [compound 21, 6-Methyl-N-(6-methylpyridin-2-yl)-4-(pyrimidin-5-yloxy)picolinamide]
- clearance at 24 h (Rat IV PK): 2.05 L/h/kg

Structure (SMILES): CCc1cccc(NC(=O)c2cc(Oc3cncnc3)cc(C)n2)n1 [compound 23, N-(6-Ethylpyridin-2-yl)-6-methyl-4-(pyrimidin-5-yloxy)picolinamide]
- clearance at 24 h (Rat IV PK): 2.62 L/h/kg

Structure (SMILES): Cc1cc(Oc2cnc(C)nc2)cc(C(=O)Nc2ccc(F)cn2)n1 [compound 33, N-(5-Fluoropyridin-2-yl)-6-methyl-4-((2-methylpyrimidin-5-yl)oxy)picolinamide]
- clearance at 24 h (Rat IV PK): 0.372 L/h/kg
